Assay results taken from patent US11974997B2, “RORgamma modulators and uses thereof” (Genfit, priority 2017, dated 2024).

Columns and labels:
human RORγt = target: T1, human RORγt (Homo sapiens, UniProt P51449); assay: RORE Luciferase/RORγt transactivation assay; format: cell-based; settings: COS-7 cells, human IL-17 promoter reporter + RORγt plasmid, 20 h; read-out: IC50, inhibition of RORγt activity (luciferase)
T1 construct: the full-length cDNA of human RORγt; expressed in transfected cells; host or cells: COS-7 (monkey kidney)
T1 sequence (P51449 1-497 isoform P51449-2): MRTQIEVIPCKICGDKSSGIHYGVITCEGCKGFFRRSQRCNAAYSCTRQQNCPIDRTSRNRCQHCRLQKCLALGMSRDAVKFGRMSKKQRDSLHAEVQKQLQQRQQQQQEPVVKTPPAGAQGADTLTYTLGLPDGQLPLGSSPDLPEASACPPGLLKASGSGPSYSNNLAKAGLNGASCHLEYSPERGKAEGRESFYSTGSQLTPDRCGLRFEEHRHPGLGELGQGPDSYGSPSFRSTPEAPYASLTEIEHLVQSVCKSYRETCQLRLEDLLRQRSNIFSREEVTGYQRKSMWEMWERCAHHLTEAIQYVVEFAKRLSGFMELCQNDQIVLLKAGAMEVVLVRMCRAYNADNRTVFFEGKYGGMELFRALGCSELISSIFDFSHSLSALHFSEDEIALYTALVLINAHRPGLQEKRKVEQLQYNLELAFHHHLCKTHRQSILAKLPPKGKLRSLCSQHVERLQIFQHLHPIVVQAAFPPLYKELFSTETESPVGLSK
Experimental: It is well known that RORγ binds to a conserved non-coding sequence (CNS) enhancer element in the IL-17 promoter.
Culture medium was changed every 2 days.
The 4.3 Kb human IL-17 promoter containing the RORγ-specific CNS enhancer element was PCR amplified from human genomic DNA and cloned into a pGL3-TKLuc2Cp reporter plasmid.
The luciferase reporter plasmid and the RORγt overexpression plasmid were transfected into COS-7 cell line using 4 μLJetPEITM/μg of DNA. Briefly, 150 ng of DNA (ration ½ between RORE-Tk Luc2Cp and cDNA RORγt or the empty vector for the negative control) was served to transfect adherent COS-7 cells in a […] culture flask, in complete medium (see cos-7 cell line culture).
Cells were then detached (using trypsin) and washed by centrifugation at 300 g for 10 minutes. Cell pellet was resuspended in serum free/phenol red free DMEM and seeded in 384 well plates at a density of 10000 cells/well and then incubated for 4h at 37° C.
Compounds were dissolved in 100% DMSO to obtain 10 mM stock solutions. For each compound, test concentrations were diluted in serum free/phenol red free DMEM using the Genesis Freedom 200™ (TECAN) and added to the cells to obtain a 0.3% DMSO final concentration (in a final volume of 40 μL per well).
The luciferase activity was then measured with 40 μL/well steady-Glo Luciferase assay system (Promega, Madison, WI) and after incubation at room temperature for 30 minutes. The luminescence was estimated using the Ultra384 reader (TECAN). Data were collected and analyzed using GraphPad Prism software (GraphPad Software V5.02, San Diego California USA). IC50 in μM and Emax in % were reported for each compound.

[1] = target: T2, RORγt ligand-binding domain (RORγt-LBD) (Homo sapiens, UniProt P51449); assay: Time-resolved FRET (TR-FRET) RORγt coactivator assay; format: biochemical; settings: GST-RORγ-LBD, biotinylated RIP140 peptide, 2 hours; read-out: IC50, coactivator displacement
T2 construct: 20 nM recombinantly expressed RORγ-LBD fused to GST
T2 sequence (P51449 269-508 limits assumed): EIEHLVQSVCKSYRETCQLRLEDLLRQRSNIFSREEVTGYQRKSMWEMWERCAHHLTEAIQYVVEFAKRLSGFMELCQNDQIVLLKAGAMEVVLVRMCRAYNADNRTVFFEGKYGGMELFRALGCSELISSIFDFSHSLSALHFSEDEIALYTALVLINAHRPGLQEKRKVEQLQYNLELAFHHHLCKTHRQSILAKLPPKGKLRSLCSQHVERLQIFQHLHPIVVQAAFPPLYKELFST
Excerpt: Time-resolved FRET (TR-FRET) RORγt coactivator assay was used to identify RORγ modulator compounds with ligand-dependent coactivator displacement. The assay uses a d2-labeled anti-GST antibody, synthetic N-terminally biotinylated peptide which is derived from nuclear receptor coactivator protein RIP140, and a RORγt ligand-binding domain (RORγt-LBD) that is tagged with glutathione-S-transferase (GST). The influence of compounds on the RORγ-peptide interaction relies on the binding dependent energy transfer from a donor to an acceptor fluorophor attached to the binding partner of interest. […] For reduction of background from compound fluorescence, TR-FRET method makes use of generic fluorophore labels and time resolved detection.
The assays were done in a final volume of 20 μl in a 384 well plate in a CHAPS buffer (2 mM CHAPS; 1 mM DTT, 2 mM EDTA; 0.1% BSA), containing 20 nM recombinantly expressed RORγ-LBD fused to GST, 30 nM N-terminally biotinylated peptide, 1 nM streptavidin-terbium conjugate and 20 nM d2 labeled-anti-GST. Test compounds were diluted using 10 mM stock solution. The range of the final compound concentrations used in this test was from 0.3 nM to 30 μM (logarithmic scale). DMSO content of the samples was kept at 1%. The assay was equilibrated for 2 hours in the dark at room temperature in 384 well plates (Falcon). The signal was detected by an Ultra384 reader (TECAN). […] Compounds that promote coactivator displacement induce a concentration-dependent decrease in time-resolved fluorescent signal. Data were collected and analyzed using GraphPad Prism software (GraphPad Software V5.02, San Diego California USA). IC50 in μM and Emax in % were reported for each compound.

[2] = cited from earlier work

Cc1ccc(C(NC(=O)Cc2ccc(N3CCNCC3)nc2)c2ccc(C)o2)c(N2CCCCC2)c1 (stereo not shown) [Cpd.10, N-{[4-methyl-2-(piperidin-1-yl)phenyl](5-methylfuran-2-yl)methyl}-2-[6-(piperazin-1-yl)pyridin-3-yl]acetamide]
IC50 (human RORγt): 100 to 1000 nM | IC50 [1]: < 100 nM

CC(=O)C1CCN(c2ncc(CC(=O)NC(c3ccc(C)o3)c3ccc(C)cc3N3CCCCC3)cn2)CC1 (stereo not shown) [Cpd.8, 2-[2-(4-acetylpiperidin-1-yl)pyrimidin-5-yl]-N-{[4-methyl-2-(piperidin-1-yl)phenyl](5-methylfuran-2-yl)methyl}acetamide]
IC50 (human RORγt): 100 to 1000 nM | IC50 [1]: 100 to 1000 nM

COC(=O)C1CCN(c2ncc(CC(=O)NC(c3ccc(C)o3)c3ccc(C)cc3N3CCCCC3)cn2)CC1 (stereo not shown) [Cpd.7, methyl 1-{5-[({[4-methyl-2-(piperidin-1-yl)phenyl](5-methylfuran-2-yl)methyl}carbamoyl)methyl]pyrimidin-2-yl}piperidine-4-carboxylate]
IC50 (human RORγt): 1000 to 10000 nM | IC50 [1]: 100 to 1000 nM

CC(=O)N1CCN(c2cccc(CC(=O)NC(c3ccc(C)o3)c3ccc(C)cc3N3CCCCC3)n2)CC1 (stereo not shown) [Cpd.12, 2-[6-(4-acetylpiperazin-1-yl)pyridin-2-yl]-N-{[4-methyl-2-(piperidin-1-yl)phenyl](5-methylfuran-2-yl)methyl}acetamide]
IC50 (human RORγt): < 100 nM | IC50 [1]: < 100 nM

Cc1ccc(C(NC(=O)Cc2cnc(N3CCC(S(C)(=O)=O)CC3)nc2)c2ccc(C)o2)c(N2CCCCC2)c1 (stereo not shown) [Cpd.5, 2-[2-(4-methanesulfonylpiperidin-1-yl)pyrimidin-5-yl]-N-{[4-methyl-2-(piperidin-1-yl)phenyl](5-methylfuran-2-yl)methyl}acetamide]
IC50 (human RORγt): 100 to 1000 nM | IC50 [1]: < 100 nM

CC(=O)N1CCN(c2cncc(CC(=O)NC(c3ccc(C)o3)c3ccc(C)cc3N3CCCCC3)c2)CC1 (stereo not shown) [Cpd.14, 2-[5-(4-acetylpiperazin-1-yl)pyridin-3-yl]-N-{[4-methyl-2-(piperidin-1-yl)phenyl](5-methylfuran-2-yl)methyl}acetamide]
IC50 (human RORγt): 100 to 1000 nM | IC50 [1]: < 100 nM

CC(=O)C1CCN(c2ncc(CC(=O)NC(c3ccc(C)o3)c3ccc(C)cc3C)cn2)CC1 (stereo not shown) [Cpd.6, 2-[2-(4-acetylpiperidin-1-yl)pyrimidin-5-yl]-N-[(2,4-dimethylphenyl)(5-methylfuran-2-yl)methyl]acetamide]
IC50 (human RORγt): 1000 to 10000 nM | IC50 [1]: 100 to 1000 nM

CCS(=O)(=O)c1ccc(CNC(=O)c2cnc3c(c2)CN(C[C@H]2CC[C@H](C(F)(F)F)CC2)[C@H]3C(C)C)nc1 [VTP-43742]
reduction in the Psoriasis Area Severity Index (PASI) score relative to placebo ([2]; 350 mg dose group): 24% | placebo-adjusted PASI score reduction ([2]; 700 mg dose group): 30% | plasma IL-17 levels relative to placebo ([2]; patients with moderate to severe psoriasis): reduced

Cc1ccc(C(NC(=O)Cc2cccc(N3CCN(C(=O)C(F)(F)F)CC3)n2)c2ccc(C)o2)c(N2CCCCC2)c1 (stereo not shown) [Cpd.16, N-{[4-methyl-2-(piperidin-1-yl)phenyl](5-methylfuran-2-yl)methyl}-2-{6-[4-(trifluoroacetyl)piperazin-1-yl]pyridin-2-yl}acetamide]
IC50 (human RORγt): 100 to 1000 nM | IC50 [1]: 100 to 1000 nM

Cc1ccc(C(NC(=O)Cc2cnc(N3CCCC(S(C)(=O)=O)C3)nc2)c2ccc(C)o2)c(N2CCCCC2)c1 (stereo not shown) [Cpd.17, 2-[2-(3-methanesulfonylpiperidin-1-yl)pyrimidin-5-yl]-N-{[4-methyl-2-(piperidin-1-yl)phenyl](5-methylfuran-2-yl)methyl}acetamide]
IC50 (human RORγt): < 100 nM | IC50 [1]: < 100 nM

CC(=O)N1CCN(c2ncc(CC(=O)NC(c3ccc(C)o3)c3ccc(C)cc3N3CCCCC3)cn2)CC1 (stereo not shown) [Cpd.13, 2-[2-(4-acetylpiperazin-1-yl)pyrimidin-5-yl]-N-{[4-methyl-2-(piperidin-1-yl)phenyl](5-methylfuran-2-yl)methyl}acetamide]
IC50 (human RORγt): 100 to 1000 nM | IC50 [1]: < 100 nM

Cc1ccc(C(NC(=O)Cc2cnc(N3CCC(C(=O)O)CC3)nc2)c2ccc(C)o2)c(N2CCCCC2)c1 (stereo not shown) [Cpd.9, 1-{5-[({[4-methyl-2-(piperidin-1-yl)phenyl](5-methylfuran-2-yl)methyl}carbamoyl)methyl]pyrimidin-2-yl}piperidine-4-carboxylic acid]
IC50 (human RORγt): 1000 to 10000 nM | IC50 [1]: < 100 nM

Cc1ccc(C(NC(=O)Cc2ccc(N3CCC(S(C)(=O)=O)CC3)nc2)c2ccc(C)o2)c(N2CCCCC2)c1 (stereo not shown) [Cpd.2, 2-[6-(4-methanesulfonylpiperidin-1-yl)pyridin-3-yl]-N-{[4-methyl-2-(piperidin-1-yl)phenyl](5-methylfuran-2-yl)methyl}acetamide]
IC50 (human RORγt): 100 to 1000 nM | IC50 [1]: < 100 nM

CC(=O)N1CCN(c2nccc(CC(=O)NC(c3ccc(C)o3)c3ccc(C)cc3N3CCCCC3)n2)CC1 (stereo not shown) [Cpd.15, 2-[2-(4-acetylpiperazin-1-yl)pyrimidin-4-yl]-N-{[4-methyl-2-(piperidin-1-yl)phenyl](5-methylfuran-2-yl)methyl}acetamide]
IC50 (human RORγt): 100 to 1000 nM | IC50 [1]: < 100 nM

Cc1ccc(C(NC(=O)Cc2ccc(N3CCN(C(=O)OC(C)(C)C)CC3)nc2)c2ccc(C)o2)c(N2CCCCC2)c1 (stereo not shown) [Cpd.3, tert-butyl 4-{5-[({[4-methyl-2-(piperidin-1-yl)phenyl](5-methylfuran-2-yl)methyl}carbamoyl)methyl]pyridin-2-yl}piperazine-1-carboxylate]
IC50 (human RORγt): 100 to 1000 nM | IC50 [1]: 100 to 1000 nM

Cc1ccc(C(NC(=O)Cc2cnc(N3CCN(S(C)(=O)=O)CC3)nc2)c2ccc(C)o2)c(N2CCCCC2)c1 (stereo not shown) [Cpd.4, 2-[2-(4-methanesulfonylpiperazin-1-yl)pyrimidin-5-yl]-N-{[4-methyl-2-(piperidin-1-yl)phenyl](5-methylfuran-2-yl)methyl}acetamide]
IC50 (human RORγt): 100 to 1000 nM | IC50 [1]: < 100 nM

CC(=O)N1CCN(c2ncc(C3(C(=O)NC(c4ccc(C)o4)c4ccc(C)cc4N4CCCCC4)CC3)cn2)CC1 (stereo not shown) [Cpd.11, 1-[2-(4-acetylpiperazin-1-yl)pyrimidin-5-yl]-N-{[4-methyl-2-(piperidin-1-yl)phenyl](5-methylfuran-2-yl)methyl}cyclopropane-1-carboxamide]
IC50 (human RORγt): < 100 nM | IC50 [1]: < 100 nM

Cc1ccc(C(NC(=O)Cc2ccc(N3CCN(S(C)(=O)=O)CC3)nc2)c2ccc(C)o2)c(N2CCCCC2)c1 (stereo not shown) [Cpd.1, 2-[6-(4-methanesulfonylpiperazin-1-yl)pyridin-3-yl]-N-{[4-methyl-2-(piperidin-1-yl)phenyl](5-methylfuran-2-yl)methyl}acetamide]
IC50 (human RORγt): 100 to 1000 nM | IC50 [1]: < 100 nM
